In BindingDB's records for doi:10.1016/j.bmcl.2011.02.072 (Bharati Vidyapeeth Deemed University, 2011) one finds Ki data, which are given here for two compounds.

For this experiment, the target named is T1, Amine oxidase [flavin-containing] A (Homo sapiens, UniProt P21397).
T1 sequence (P21397 whole entry): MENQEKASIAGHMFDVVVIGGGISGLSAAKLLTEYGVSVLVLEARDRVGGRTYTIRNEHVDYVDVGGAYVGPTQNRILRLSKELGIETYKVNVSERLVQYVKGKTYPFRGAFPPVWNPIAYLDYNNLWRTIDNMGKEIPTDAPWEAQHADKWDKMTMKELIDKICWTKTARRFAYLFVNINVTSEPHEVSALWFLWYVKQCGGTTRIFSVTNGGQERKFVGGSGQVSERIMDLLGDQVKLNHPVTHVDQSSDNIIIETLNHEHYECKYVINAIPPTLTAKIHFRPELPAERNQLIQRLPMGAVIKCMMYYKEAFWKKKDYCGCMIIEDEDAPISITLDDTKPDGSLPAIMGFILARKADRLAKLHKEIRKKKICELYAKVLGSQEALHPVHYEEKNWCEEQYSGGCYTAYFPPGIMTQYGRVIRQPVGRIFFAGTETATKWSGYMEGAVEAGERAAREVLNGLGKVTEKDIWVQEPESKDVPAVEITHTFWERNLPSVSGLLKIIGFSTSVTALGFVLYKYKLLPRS
Briefly: […].

On to `Cn1cccc1C(=O)[C@H](c1ccccc1)N1CCCC1` [1-(1-Methyl-1H-pyrrol-2-yl)-2-phenyl-2-pyrrolidin-1-yl-ethanone (+)-S], for which affinity was put at a Ki of 9.51 nM.
In turn, `Cn1cccc1C(=O)[C@@H](c1ccccc1)N1CCCC1` [1-(1-Methyl-1H-pyrrol-2-yl)-2-phenyl-2-pyrrolidin-1-yl-ethanone (-)-R] returned an inhibition constant Ki of 3.5 nM.
